Data from ChEMBL document CHEMBL6078668, “Synthesis and biological evaluation of lappaconitine analogues as potential anti-neuroinflammatory agents by side chain modification and scaffold hopping strategy” (Bioorg Med Chem, 2025).

Legend:
[1] = Cytotoxicity against C57BL/6 mouse BV-2 cells assessed as survival rate at 30 uM incubated for 24 hrs by MTT assay relative to control; assay type: toxicity, cell-based; details: read-out: Survival
BV-2 = assay: Anti-neuroinflammatory activity against LPS-stimulated C57BL/6 mouse BV-2 cells assessed as inhibition of NO release at 30 uM preincubated with compound for 4 hrs followed by LPS addition and measured after 24 hrs by Griess reagent based assay relative to control; assay type: functional; details: C57BL/6, BV-2, time 28 hrs

CCN1C[C@]2(OC(=O)c3ccccc3NC(=O)S(=O)(=O)c3ccc(C(C)=O)cc3)CC[C@H](OC)[C@]34C1[C@@H](C[C@H]23)[C@@]1(O)C[C@H](OC)[C@H]2C[C@@H]4[C@]1(O)[C@H]2OC
viability at 24 h, 30 µM [1]: 92.6% | inhibition at 30 µM (BV-2): 18%

CCN1C[C@]2(OC(=O)c3ccccc3NC(=O)S(=O)(=O)c3cccnc3Cl)CC[C@H](OC)[C@]34C1[C@@H](C[C@H]23)[C@@]1(O)C[C@H](OC)[C@H]2C[C@@H]4[C@]1(O)[C@H]2OC
viability at 24 h, 30 µM [1]: 106% | inhibition at 30 µM (BV-2): 56.5%

CCN1C[C@]2(OC(=O)c3ccccc3NC(=O)S(=O)(=O)c3ccccc3Cl)CC[C@H](OC)[C@]34C1[C@@H](C[C@H]23)[C@@]1(O)C[C@H](OC)[C@H]2C[C@@H]4[C@]1(O)[C@H]2OC
viability at 24 h, 30 µM [1]: 100% | inhibition at 30 µM (BV-2): 7.8%

O=c1c(O)c(-c2ccc(O)c(O)c2)oc2cc(O)cc(O)c12 [QUERCETIN]
viability at 24 h, 30 µM [1]: 99.5% | inhibition at 30 µM (BV-2): 76.7%

CCN1C[C@]2(OC(=O)c3ccccc3NC(=O)CN(C)C)CC[C@H](OC)[C@]34C1[C@@H](C[C@H]23)[C@@]1(O)C[C@H](OC)[C@H]2C[C@@H]4[C@]1(O)[C@H]2OC
viability at 24 h, 30 µM [1]: 94.5% | inhibition at 30 µM (BV-2): 20.2%

CCN1C[C@]2(OC(=O)c3ccccc3NC(=O)S(=O)(=O)c3ccc(C(=O)OC)cc3)CC[C@H](OC)[C@]34C1[C@@H](C[C@H]23)[C@@]1(O)C[C@H](OC)[C@H]2C[C@@H]4[C@]1(O)[C@H]2OC
viability at 24 h, 30 µM [1]: 104% | inhibition at 30 µM (BV-2): 15.7%

CCN1C[C@]2(COC(=O)c3ccccc3NS(=O)(=O)c3cccc(F)c3)CC[C@H](OC)[C@]34C1[C@@H](C[C@H]23)[C@@]1(O)C[C@H](OC)[C@H]2C[C@@H]4[C@]1(O)[C@H]2O
viability at 24 h, 30 µM [1]: 106% | inhibition at 30 µM (BV-2): 17.9%

CCN1C[C@]2(OC(=O)c3ccccc3NC(=O)c3ccc(F)cc3)CC[C@H](OC)[C@]34C1[C@@H](C[C@H]23)[C@@]1(O)C[C@H](OC)[C@H]2C[C@@H]4[C@]1(O)[C@H]2OC
viability at 24 h, 30 µM [1]: 104% | inhibition at 30 µM (BV-2): 22.3%

CCN1C[C@]2(OC(=O)c3ccccc3NC(=O)S(=O)(=O)c3ccc(C)c(Cl)c3)CC[C@H](OC)[C@]34C1[C@@H](C[C@H]23)[C@@]1(O)C[C@H](OC)[C@H]2C[C@@H]4[C@]1(O)[C@H]2OC
viability at 24 h, 30 µM [1]: 94.8% | inhibition at 30 µM (BV-2): 25.2%

CCN1C[C@]2(COC(=O)c3ccccc3N)CC[C@H](OC)[C@]34C1[C@@H](C[C@H]23)[C@@]1(O)C[C@H](OC)[C@H]2C[C@@H]4[C@]1(O)[C@H]2OC
viability at 24 h, 30 µM [1]: 91.9% | inhibition at 30 µM (BV-2): 22%

CCN1C[C@]2(OC(=O)c3ccccc3NC(=O)C3CC3)CC[C@H](OC)[C@]34C1[C@@H](C[C@H]23)[C@@]1(O)C[C@H](OC)[C@H]2C[C@@H]4[C@]1(O)[C@H]2OC
viability at 24 h, 30 µM [1]: 104% | inhibition at 30 µM (BV-2): 27.7%

CCN1C[C@]2(OC(=O)c3ccccc3NC(=O)S(=O)(=O)c3cc(F)c(F)cc3F)CC[C@H](OC)[C@]34C1[C@@H](C[C@H]23)[C@@]1(O)C[C@H](OC)[C@H]2C[C@@H]4[C@]1(O)[C@H]2OC
viability at 24 h, 30 µM [1]: 108% | inhibition at 30 µM (BV-2): 10.5%

CCN1C[C@]2(OC(=O)c3ccccc3NC(=O)S(=O)(=O)c3ccc(C4CCCCC4)cc3)CC[C@H](OC)[C@]34C1[C@@H](C[C@H]23)[C@@]1(O)C[C@H](OC)[C@H]2C[C@@H]4[C@]1(O)[C@H]2OC
viability at 24 h, 30 µM [1]: 93.7% | inhibition at 30 µM (BV-2): 38.5%

CCN1C[C@]2(OC(=O)c3ccccc3NC(=O)CCc3ccccc3)CC[C@H](OC)[C@]34C1[C@@H](C[C@H]23)[C@@]1(O)C[C@H](OC)[C@H]2C[C@@H]4[C@]1(O)[C@H]2OC
viability at 24 h, 30 µM [1]: 108% | inhibition at 30 µM (BV-2): 16.6%

CCN1C[C@]2(COC(=O)c3ccccc3NS(=O)(=O)c3ccc(Br)s3)CC[C@H](OC)[C@]34C1[C@@H](C[C@H]23)[C@@]1(O)C[C@H](OC)[C@H]2C[C@@H]4[C@]1(O)[C@H]2O
viability at 24 h, 30 µM [1]: 104% | inhibition at 30 µM (BV-2): 26.2%

CCN1C[C@]2(OC(=O)c3ccccc3NC(=O)c3ccccc3Br)CC[C@H](OC)[C@]34C1[C@@H](C[C@H]23)[C@@]1(O)C[C@H](OC)[C@H]2C[C@@H]4[C@]1(O)[C@H]2OC
viability at 24 h, 30 µM [1]: 106% | inhibition at 30 µM (BV-2): 32.5%

CCN1C[C@]2(OC(=O)c3ccccc3NC(=O)S(=O)(=O)c3ccc(C)cc3F)CC[C@H](OC)[C@]34C1[C@@H](C[C@H]23)[C@@]1(O)C[C@H](OC)[C@H]2C[C@@H]4[C@]1(O)[C@H]2OC
viability at 24 h, 30 µM [1]: 106% | inhibition at 30 µM (BV-2): 26.4%

O=C(O)c1ccccc1NS(=O)(=O)c1cccc(F)c1
viability at 24 h, 30 µM [1]: 100% | inhibition at 30 µM (BV-2): 10.8%

CCN1C[C@]2(OC(=O)c3ccccc3NC(=O)S(=O)(=O)c3ccccc3Br)CC[C@H](OC)[C@]34C1[C@@H](C[C@H]23)[C@@]1(O)C[C@H](OC)[C@H]2C[C@@H]4[C@]1(O)[C@H]2OC
viability at 24 h, 30 µM [1]: 92.6% | inhibition at 30 µM (BV-2): 7.3%

CCN1C[C@]2(OC(=O)c3ccccc3NC(=O)S(=O)(=O)c3cccs3)CC[C@H](OC)[C@]34C1[C@@H](C[C@H]23)[C@@]1(O)C[C@H](OC)[C@H]2C[C@@H]4[C@]1(O)[C@H]2OC
viability at 24 h, 30 µM [1]: 105% | inhibition at 30 µM (BV-2): 55.9%

CCN1C[C@]2(OC(=O)c3ccccc3NC(=O)S(=O)(=O)c3ccc4c(c3)CCC4)CC[C@H](OC)[C@]34C1[C@@H](C[C@H]23)[C@@]1(O)C[C@H](OC)[C@H]2C[C@@H]4[C@]1(O)[C@H]2OC
viability at 24 h, 30 µM [1]: 94.4% | inhibition at 30 µM (BV-2): 18.1%

CCN1C[C@]2(OC(=O)c3ccccc3NC(=O)S(=O)(=O)c3ccc(NC(C)=O)cc3)CC[C@H](OC)[C@]34C1[C@@H](C[C@H]23)[C@@]1(O)C[C@H](OC)[C@H]2C[C@@H]4[C@]1(O)[C@H]2OC
viability at 24 h, 30 µM [1]: 104% | inhibition at 30 µM (BV-2): 10.4%

CCN1C[C@]2(OC(=O)c3ccccc3NC(=O)c3ccccc3)CC[C@H](OC)[C@]34C1[C@@H](C[C@H]23)[C@@]1(O)C[C@H](OC)[C@H]2C[C@@H]4[C@]1(O)[C@H]2OC
viability at 24 h, 30 µM [1]: 107% | inhibition at 30 µM (BV-2): 36%

CCN1C[C@]2(OC(=O)c3ccccc3NC(=O)S(=O)(=O)c3cccc(Cl)c3)CC[C@H](OC)[C@]34C1[C@@H](C[C@H]23)[C@@]1(O)C[C@H](OC)[C@H]2C[C@@H]4[C@]1(O)[C@H]2OC
viability at 24 h, 30 µM [1]: 95.4% | inhibition at 30 µM (BV-2): 13.9%

CCN1C[C@]2(OC(=O)c3ccccc3NC(=O)c3ccccc3F)CC[C@H](OC)[C@]34C1[C@@H](C[C@H]23)[C@@]1(O)C[C@H](OC)[C@H]2C[C@@H]4[C@]1(O)[C@H]2OC
viability at 24 h, 30 µM [1]: 105% | inhibition at 30 µM (BV-2): 17.3%

CCN1C[C@]2(OC(=O)c3ccccc3NC(=O)c3ccccc3Cl)CC[C@H](OC)[C@]34C1[C@@H](C[C@H]23)[C@@]1(O)C[C@H](OC)[C@H]2C[C@@H]4[C@]1(O)[C@H]2OC
viability at 24 h, 30 µM [1]: 104% | inhibition at 30 µM (BV-2): 12.8%

CCN1C[C@]2(OC(=O)c3ccccc3NC(C)=O)CC[C@H](OC)[C@]34C1[C@@H](C[C@H]23)[C@@]1(O)C[C@H](OC)[C@H]2C[C@@H]4[C@]1(O)[C@H]2OC
viability at 24 h, 30 µM [1]: 98.2% | inhibition at 30 µM (BV-2): 25.1%

CCN1C[C@]2(OC(=O)c3ccccc3NC(=O)S(=O)(=O)c3ccc(OC)c(F)c3)CC[C@H](OC)[C@]34C1[C@@H](C[C@H]23)[C@@]1(O)C[C@H](OC)[C@H]2C[C@@H]4[C@]1(O)[C@H]2OC
viability at 24 h, 30 µM [1]: 103% | inhibition at 30 µM (BV-2): 11.1%

CCN1C[C@]2(OC(=O)c3ccccc3NC(=O)S(=O)(=O)c3cccc(C#N)c3)CC[C@H](OC)[C@]34C1[C@@H](C[C@H]23)[C@@]1(O)C[C@H](OC)[C@H]2C[C@@H]4[C@]1(O)[C@H]2OC
viability at 24 h, 30 µM [1]: 108% | inhibition at 30 µM (BV-2): 7.4%

CCN1C[C@]2(OC(=O)c3ccccc3NC(=O)S(=O)(=O)c3cc(F)ccc3F)CC[C@H](OC)[C@]34C1[C@@H](C[C@H]23)[C@@]1(O)C[C@H](OC)[C@H]2C[C@@H]4[C@]1(O)[C@H]2OC
viability at 24 h, 30 µM [1]: 105% | inhibition at 30 µM (BV-2): 53.7%

CCc1ccc(C(=O)Nc2ccccc2C(=O)OC)cc1
viability at 24 h, 30 µM [1]: 103% | inhibition at 30 µM (BV-2): 37.1%

CCN1C[C@]2(OC(=O)c3ccccc3NC(=O)c3ccc(C)cc3C)CC[C@H](OC)[C@]34C1[C@@H](C[C@H]23)[C@@]1(O)C[C@H](OC)[C@H]2C[C@@H]4[C@]1(O)[C@H]2OC
viability at 24 h, 30 µM [1]: 104% | inhibition at 30 µM (BV-2): 16%

CCN1C[C@]2(OC(=O)c3ccccc3NC(=O)c3ccc(C#N)cc3)CC[C@H](OC)[C@]34C1[C@@H](C[C@H]23)[C@@]1(O)C[C@H](OC)[C@H]2C[C@@H]4[C@]1(O)[C@H]2OC
viability at 24 h, 30 µM [1]: 99.5% | inhibition at 30 µM (BV-2): 6.6%

CCN1C[C@]2(OC(=O)c3ccccc3NC(=O)S(=O)(=O)c3ccc(F)cc3F)CC[C@H](OC)[C@]34C1[C@@H](C[C@H]23)[C@@]1(O)C[C@H](OC)[C@H]2C[C@@H]4[C@]1(O)[C@H]2OC
viability at 24 h, 30 µM [1]: 103% | inhibition at 30 µM (BV-2): 47.5%

CCN1C[C@]2(OC(=O)c3ccccc3NC(=O)S(=O)(=O)c3ccc4ccccc4c3)CC[C@H](OC)[C@]34C1[C@@H](C[C@H]23)[C@@]1(O)C[C@H](OC)[C@H]2C[C@@H]4[C@]1(O)[C@H]2OC
viability at 24 h, 30 µM [1]: 100% | inhibition at 30 µM (BV-2): 53.1%

COC(=O)c1ccccc1NS(=O)(=O)c1cccc(F)c1
viability at 24 h, 30 µM [1]: 106% | inhibition at 30 µM (BV-2): 38.5%

CCN1C[C@]2(OC(=O)c3ccccc3NC(=O)S(=O)(=O)CCCCl)CC[C@H](OC)[C@]34C1[C@@H](C[C@H]23)[C@@]1(O)C[C@H](OC)[C@H]2C[C@@H]4[C@]1(O)[C@H]2OC
viability at 24 h, 30 µM [1]: 104% | inhibition at 30 µM (BV-2): 23.5%
